Experimental data reported in patent US4593090A, “Novel nitrosourea compounds, method for preparing same, and pharmaceutical composition containing same” (Gogo Kimura, priority 1981, dated 1986).

What was measured:
[1] = Acute toxicity (LD50, Behrens-Karber method); assay type: in vivo, ICR mice; settings: ip, mortality during 30 days; for LD50 at 720 h: mouse, in vivo
Method: Test compounds, dissolved or suspended in 0.5% aqueous CMC, were each intraperitoneally administered to ICR mice in a dose of 0.1 ml per 10 g body weight. LD50 (mg/kg) value of each test compound was calculated from the mortality of mice during 30 days by the Behrens-Karber method.

[2] = tested on: Leukemia L1210; assay: Activity against Leukemia L1210, intraperitoneal, increase in life span of mice; assay type: in vivo, female mice (BDF1 family); settings: for ED (maximum ILS) / ED30: Mus musculus, L1210, ip; for ED (maximum ILS): read-out: O.D. (optimum dosage); for ED30: read-out: ILS30; for Survivors after 60 days / Max. ILS % / Therapeutic ratio TR: ip; for Survivors after 60 days: 6-membered group; for Max. ILS %: 60-day observation, versus control; for Therapeutic ratio TR: O.D./ILS30
Method: Tests were conducted in accordance with the method for measuring antitumor activity of National Cancer Center Tokyo (A, Hoshi et al, Farumashia 9 464 (1973)). Test compounds were each intraperitoneally (referred to as ip) or orally (referred to as op) administered once a day for 5 successive days to a 6-membered group of femal mice (BDF1 family, each weighing 20 to 23 g) 24 hours after 1×10^5 cells of Leukemia L1210 have been implantated into the abdominal cavities of the mice, and the effect was evaluated by comparing the survival days of treated groups with those of an untreated group of mice (control group) in 60-day observation. An increase percentage of life span (ILS%) was calculated from said average survival days compared with those of the control group. Further, therapeutic ratio (O.D./ILD30, referred to as T.R.) of each tested compound was calculated from the daily dosage of the compound necessary to increase said average survival days by 30% as compared with the control group (this dosage is referred to as ILS 30) and the daily dosage giving a maximum increase of life span to mice implantated with L1210 cells, namely an optimum dosage (referred to as O.D.). The results of five successive days intraperitoneal administrations of test compounds were shown in Tables I to III, and those of five successive oral administrations in Table IV.

[3] = ip once a day for 5 successive days, daily dosage giving maximum increase of life span
[4] = ip once a day for 5 successive days, daily dosage increasing average survival days by 30%

In the case of `CC(C)CN(C(=O)N(CCCl)N=O)[C@@H]1CO[C@H](OC2CCCCC2)[C@H](O)[C@H]1O` [Compound 151, 3-isobutyl-3-(cyclohexyl α-D-xylopyranose-4-yl)-1-(2-chloroethyl)-1-nitrosourea], the LD50 at 720 h [1] is reported as 490 mg/kg, the ED (maximum ILS) [2, 3] is reported as 150 mg/kg and the ED30 [2, 4] is reported as 3.21 mg/kg. The “Survivors after 60 days” value [2] was 4/6, the “Max. ILS %” value [2] was greater than 425% and the “Therapeutic ratio TR” value [2] was 46.7.
In the case of `CCOCCCO[C@H]1O[C@H](CN(CC(C)C)C(=O)N(CCCl)N=O)[C@@H](O)[C@H](O)[C@H]1O` [Compound 32, 3-isobutyl-3-(3-ethoxy-n-propyl α-D-glucopyranose-6-yl)-1-(2-chloroethyl)-1-nitrosourea], the LD50 at 720 h [1] is reported as 495 mg/kg, the ED (maximum ILS) [2, 3] is reported as 170 mg/kg and the ED30 [2, 4] is reported as 2.91 mg/kg. The “Survivors after 60 days” value [2] was 6/6, the “Max. ILS %” value [2] was greater than 700% and the “Therapeutic ratio TR” value [2] was 58.4.
`O=NN(CCCl)C(=O)N(CCCCO)C[C@H]1O[C@H](OC2CCCCC2)[C@H](O)[C@@H](O)[C@@H]1O` [Compound 43] showed an LD50 at 720 h [1] of 520 mg/kg, an ED (maximum ILS) [2, 3] of 160 mg/kg and an ED30 [2, 4] of 4.68 mg/kg. The “Survivors after 60 days” value [2] was 4/6, the “Max. ILS %” value [2] was greater than 435% and the “Therapeutic ratio TR” value [2] was 34.2.
Work on `COc1ccc(CO[C@H]2O[C@H](CN(CC(C)C)C(=O)N(CCCl)N=O)[C@@H](O)[C@H](O)[C@H]2O)cc1` [Compound 51, 3-isobutyl-3-(p-methoxybenzyl α-D-glucopyranose-6-yl)-1-(2-chloroethyl)-1-nitrosourea] yielded an LD50 at 720 h [1] of 350 mg/kg, an ED (maximum ILS) [2, 3] of 120 mg/kg and an ED30 [2, 4] of 3.3 mg/kg. The “Survivors after 60 days” value [2] was 4/6, the “Max. ILS %” value [2] was greater than 430% and the “Therapeutic ratio TR” value [2] was 36.4.
With `CC(C)CN(C[C@H]1O[C@H](OC(C)(C)C)[C@H](O)[C@@H](O)[C@@H]1O)C(=O)N(CCCl)N=O` [Compound 28, 3-isobutyl-3-(2-methyl-2-propyl α-D-glucopyranose-6-yl)-1-(2-chloroethyl)-1-nitrosourea] the LD50 [1] was 375 mg/kg, the “O.D. (optimum dosage)” value [2, 3] was 130 mg/kg and the ILS30 [2, 4] was 3.00 mg/kg. For the same compound, the “Survivors after 60 days” value [2] was 6/6, the “Max. ILS %” value [2] was greater than 700% and the “Therapeutic ratio TR” value [2] was 43.2.
Compound `CC(C)COC1OC(CO)C(N(CC2CC2)C(=O)N(CCCl)N=O)C(O)C1O` [Compound 95, 3-cyclopropylmethyl-3-(isobutyl α-D-glucopyranose-4-yl)-1-(2-chloroethyl)-1-nitrosourea] has an LD50 at 720 h [1] of 400 mg/kg, an ED (maximum ILS) [2, 3] of 120 mg/kg and an ED30 [2, 4] of 3.82 mg/kg. For the same compound, the “Survivors after 60 days” value [2] was 3/6, the “Max. ILS %” value [2] was greater than 360% and the “Therapeutic ratio TR” value [2] was 31.4.
For `CC(C)CO[C@H]1O[C@H](CO)[C@H](N(CC(C)C)C(=O)N(CCCl)N=O)[C@H](O)[C@H]1O` [Compound 129, 3-isobutyl-3-(isobutyl α-D-garactopyranose-4-yl)-1-(2-chloroethyl)-1-nitrosourea], the LD50 at 720 h [1] was 600 mg/kg, the ED (maximum ILS) [2, 3] was 200 mg/kg and the ED30 [2, 4] was 5.21 mg/kg. For the same compound, the “Survivors after 60 days” value [2] was 3/6, the “Max. ILS %” value [2] was greater than 350% and the “Therapeutic ratio TR” value [2] was 38.4.
Compound `C=C(C)CN(C(=O)N(CCCl)N=O)[C@@H]1[C@H](O)[C@@H](O)[C@@H](OCC(COC)OC)O[C@@H]1CO` (stereo partly drawn) [Compound 130, 3-(2-methyl-2-propenyl)-3-(2,3-dimethoxy-n-propyl α-D-galactopyranose-4-yl)-1-(2-chloroethyl)-1-nitrosourea] has an LD50 at 720 h [1] of 525 mg/kg, an ED (maximum ILS) [2, 3] of 160 mg/kg and an ED30 [2, 4] of 5.06 mg/kg. The “Survivors after 60 days” value [2] was 3/6, the “Max. ILS %” value [2] was greater than 340% and the “Therapeutic ratio TR” value [2] was 31.6.
`C=C(C)CN(C(=O)N(CCCl)N=O)C1C(O)C(CO)OC(OC(C)CC)C1O` [Compound 85, 3-(2-methyl-2-propenyl)-3-(sec-butyl α-D-glucopyranose-3-yl)-1-(2-chloroethyl)-1-nitrosourea] showed an LD50 at 720 h [1] of 685 mg/kg, an ED (maximum ILS) [2, 3] of 220 mg/kg and an ED30 [2, 4] of 7.25 mg/kg. For the same compound, the “Survivors after 60 days” value [2] was 3/6, the “Max. ILS %” value [2] was greater than 360% and the “Therapeutic ratio TR” value [2] was 30.3.
Compound `C=C(C)CN(C(=O)N(CCCl)N=O)C1C(CO)OC(OC(C)CC)C(O)C1O` [Compound 91, 3-(2-methyl-2-propenyl)-3-(sec-butyl α-D-glucopyranose-4-yl)-1-(2-chloroethyl)-1-nitrosourea] has an LD50 at 720 h [1] of 450 mg/kg, an ED (maximum ILS) [2, 3] of 150 mg/kg and an ED30 [2, 4] of 4.65 mg/kg. The “Survivors after 60 days” value [2] was 3/6, the “Max. ILS %” value [2] was greater than 340% and the “Therapeutic ratio TR” value [2] was 32.3.
Compound `COc1cc(CO[C@H]2O[C@H](CN(CC(C)C)C(=O)N(CCCl)N=O)[C@@H](O)[C@H](O)[C@H]2O)cc(OC)c1OC` [Compound 53, 3-isobutyl-3-(3,4,5-trimethoxybenzyl α-D-glucopyranose-6-yl)-1-(2-chloroethyl)-1-nitrosourea] has an LD50 at 720 h [1] of 350 mg/kg, an ED (maximum ILS) [2, 3] of 120 mg/kg and an ED30 [2, 4] of 3.95 mg/kg. For the same compound, the “Survivors after 60 days” value [2] was 4/6, the “Max. ILS %” value [2] was greater than 425% and the “Therapeutic ratio TR” value [2] was 30.4.
`COCC(C)OC1OC(CO)C(O)C(N(CC(C)C)C(=O)N(CCCl)N=O)C1O` [Compound 79, 3-isobutyl-3-(1-methyl-2-methoxyethyl α-D-glucopyranose-3-yl)-1-(2-chloroethyl)-1-nitrosourea] showed an LD50 at 720 h [1] of 690 mg/kg, an ED (maximum ILS) [2, 3] of 200 mg/kg and an ED30 [2, 4] of 4.93 mg/kg. For the same compound, the “Survivors after 60 days” value [2] was 4/6, the “Max. ILS %” value [2] was greater than 430% and the “Therapeutic ratio TR” value [2] was 40.6.
With `C=C(C)CN(C(=O)N(CCCl)N=O)C1C(CO)OC(OC2CCCCC2)C(O)C1O` [Compound 97, 3-(2-methyl-2-propenyl)-3-(cyclohexyl α-D-glucopyranose-4-yl)-1-(2-chloroethyl)-1-nitrosourea] the LD50 at 720 h [1] was 390 mg/kg, the ED (maximum ILS) [2, 3] was 120 mg/kg and the ED30 [2, 4] was 3.72 mg/kg. The “Survivors after 60 days” value [2] was 3/6, the “Max. ILS %” value [2] was greater than 360% and the “Therapeutic ratio TR” value [2] was 32.3.
For `CCCC(OC)O[C@H]1O[C@H](CN(CCC(C)(C)C)C(=O)N(CCCl)N=O)[C@@H](O)[C@H](O)[C@H]1O` (stereo partly drawn) [Compound 191, 3-(3,3-dimethyl-n-butyl)-3-(1-methoxy-n-butyl α-D-glucopyranose-6-yl)-1-(2-chloroethyl)-1-nitrosourea], the LD50 at 720 h [1] was 560 mg/kg, the ED (maximum ILS) [2, 3] was 160 mg/kg and the ED30 [2, 4] was 2.64 mg/kg. The “Survivors after 60 days” value [2] was 6/6, the “Max. ILS %” value [2] was greater than 700% and the “Therapeutic ratio TR” value [2] was 60.6.
With `CCCCO[C@H]1O[C@H](CO)[C@@H](O)[C@H](O)[C@H]1N(CCOCCO)C(=O)N(CCCl)N=O` [Compound 58, 3-[2-(2-hydroxyethoxy)ethyl]-3-(n-butyl α-D-glucopyranose-2-yl)-1-(2-chloroethyl)-1-nitrosourea] the LD50 at 720 h [1] was 585 mg/kg, the ED (maximum ILS) [2, 3] was 190 mg/kg and the ED30 [2, 4] was 4.2 mg/kg. The “Survivors after 60 days” value [2] was 4/6, the “Max. ILS %” value [2] was greater than 422% and the “Therapeutic ratio TR” value [2] was 45.2.
Compound `CC(C)CO[C@H]1O[C@H](CO)[C@@H](O)[C@H](O)[C@H]1N(CC(C)C)C(=O)N(CCCl)N=O` [Compound 61, 3-isobutyl-3-(isobutyl α-D-glucopyranose-2-yl)-1-(2-chloroethyl)-1-nitrosourea] has an LD50 at 720 h [1] of 595 mg/kg, an ED (maximum ILS) [2, 3] of 190 mg/kg and an ED30 [2, 4] of 5.86 mg/kg. The “Survivors after 60 days” value [2] was 3/6, the “Max. ILS %” value [2] was greater than 340% and the “Therapeutic ratio TR” value [2] was 32.4.
With `CCCCO[C@H]1O[C@H](CN(CCCC)C(=O)N(CCCl)N=O)[C@@H](O)[C@H](O)[C@H]1O` [Compound 6, 3-n-butyl-3-(n-butyl α-D-glucopyranose-6-yl)-1-(2-chloroethyl)-1-nitrosourea] the LD50 at 720 h [1] was 390 mg/kg, the ED (maximum ILS) [2, 3] was 120 mg/kg and the ED30 [2, 4] was 3 mg/kg. The “Survivors after 60 days” value [2] was 6/6, the “Max. ILS %” value [2] was greater than 700% and the “Therapeutic ratio TR” value [2] was 40.0.
`CC(C)CO[C@@H]1O[C@H](CO)[C@@H](O)[C@H](O)[C@H]1N(C(=O)N(CCCl)N=O)C(C)(C)C` [Compound 176, 3-tert-butyl-3-(isobutyl β-D-glucopyranose-2-yl)-1-(2-chloroethyl)-1-nitrosourea] gave an LD50 at 720 h [1] of 620 mg/kg, an ED (maximum ILS) [2, 3] of 180 mg/kg and an ED30 [2, 4] of 5.9 mg/kg. The “Survivors after 60 days” value [2] was 6/6, the “Max. ILS %” value [2] was greater than 700% and the “Therapeutic ratio TR” value [2] was 30.5.
`CC(C)CO[C@H]1O[C@H](CN(Cc2ccccc2)C(=O)N(CCCl)N=O)[C@@H](O)[C@H](O)[C@H]1O` [Compound 22, 3-benzyl-3-(isobutyl α-D-glucopyranose-6-yl)-1-(2-chloroethyl)-1-nitrosourea] gave an LD50 at 720 h [1] of 510 mg/kg, an ED (maximum ILS) [2, 3] of 170 mg/kg and an ED30 [2, 4] of 4.45 mg/kg. For the same compound, the “Survivors after 60 days” value [2] was 3/6, the “Max. ILS %” value [2] was greater than 350% and the “Therapeutic ratio TR” value [2] was 38.2.
`CC(C)CN(C[C@H]1O[C@@H](OC2CCCCC2)[C@H](O)[C@@H]1O)C(=O)N(CCCl)N=O` [Compound 169, 3-isobutyl-3-(cyclohexyl β-D-ribofuranose-5-yl)-1-(2-chloroethyl)-1-nitrosourea] showed an LD50 at 720 h [1] of 550 mg/kg, an ED (maximum ILS) [2, 3] of 180 mg/kg and an ED30 [2, 4] of 3.9 mg/kg. For the same compound, the “Survivors after 60 days” value [2] was 4/6, the “Max. ILS %” value [2] was greater than 420% and the “Therapeutic ratio TR” value [2] was 46.2.
